According to paper PMC6773865, “Functional recruitment of dynamin requires multimeric interactions for efficient endocytosis” (Nature Communications, 2019):

Test system: membrane capacitance of NIH 3T3 cells (balance between exocytosis and endocytosis)
Test: Cell capacitance in whole cell patch-clamp
Format: cell-based
Settings: 10th minute over 1st minute of whole cell recording; peptides 1 mM; paired t-test
Method: Cells were patched with pipettes made of borosilicate glass (GC150F, Harvard Apparatus) and pulled with a vertical Narishige puller (World Precision Instruments). The solution contained (in mM): 130–140 KCH3SO3, 1 EGTA, 0.1 CaCl2, 10–20 HEPES, 4 ATP (sodium or magnesium salt), 0.4 Na-GTP (or GTPγS when indicated), 5 phosphocreatine and 3 sodium ascorbate. pH was adjusted to 7.2 using KOH and osmolarity to ~300 mOsm L^−1. Sodium ascorbate was omitted in earlier recordings but was added for better stability. Chloride ions either came from 2 mM KCl, 10 mM NaCl or 4 mM MgCl2 (when Na-ATP was used) in various trials. All salts were purchased from Sigma-Aldrich. Cells were voltage-clamped at −60 mV with an EPC10 amplifier (HEKA) with series resistance and cell capacitance estimation every 4 s in the whole cell mode. The digital triggers of the amplifier were used to drive the electrovalves for pH changes. Cell viability and dialysis efficiency were made sure of by monitoring […] throughout the recording using the Patchmaster software (HEKA): series resistance should remain below 10 MΩ and holding current should remain above −100 pA. If either of these criteria was not respected (except holding current for recordings in GTPγS, see Supplementary Fig. 3D), the recording was not considered for analysis. On a given experimental day at least one control recording (i.e. without any peptide) was performed to ensure recording quality. All these recordings were pooled in the ‘control’ condition (n = 63 on 42 experimental days). […]
Supplementary Figure 5: Characteristics of the whole cell recordings in the different conditions of this study. A, Scheme of the equivalent electrical circuit of a cell recorded in the whole cell configuration. […]
This is likely due to the activation of GTP dependent trimeric G proteins which activate various channels in the presence of GTPγS, thereby increasing the holding current. […] F, Ratios of Cm recorded during the 10 th minute of recording over Cm recorded during the 1st minute. […]

**Q.** For `CC(=O)N[C@@H](Cc1ccc(O)cc1)C(=O)N[C@@H](CCCCn1cc(CCC(=O)NCCCOCCOCCOCCCNC(=O)CCC(=O)NCCCOCCOCCOCCCNC(=O)CCC(=O)NCCCOCCOCCOCCCNC(=O)CCC(=O)N2CCC[C@H]2C(=O)N2CCC[C@H]2C(=O)N2CCC[C@H]2C(=O)N[C@@H](CCC(N)=O)C(=O)N[C@H](C(=O)N2CCC[C@H]2C(=O)N[C@@H](CO)C(=O)N[C@@H](CCCNC(=N)N)C(=O)N2CCC[C@H]2C(=O)N[C@@H](CC(N)=O)C(=O)N[C@@H](CCCNC(=N)N)C(=O)N[C@@H](C)C(=O)N2CCC[C@H]2C(=O)N2CCC[C@H]2C(=O)NCC(N)=O)C(C)C)nn1)C(=O)NCCCOCCOCCOCCCNC(=O)CCC(=O)NCCCOCCOCCOCCCNC(=O)CCC(=O)NCCCOCCOCCOCCCNC(=O)CCC(=O)N1CCC[C@H]1C(=O)N1CCC[C@H]1C(=O)N1CCC[C@H]1C(=O)N[C@@H](CCC(N)=O)C(=O)N[C@H](C(=O)N1CCC[C@H]1C(=O)N[C@@H](CO)C(=O)N[C@@H](CCCNC(=N)N)C(=O)N1CCC[C@H]1C(=O)N[C@@H](CC(N)=O)C(=O)N[C@@H](CCCNC(=N)N)C(=O)N[C@@H](C)C(=O)N1CCC[C@H]1C(=O)N1CCC[C@H]1C(=O)NCC(N)=O)C(C)C` [dD15-N], which “change of Cm, Cm(10')/Cm(1')” value is on record?
**A.** no significant decrease in Cm
